The record followed here is US11839612B1, “Compounds and combinations thereof for treating neurological and psychiatric conditions” (priority 2022, dated 2023).

Series [1] can be described thus: Food effect on pharmacokinetics of the subject combination. The following applies: subject combination administered with food. The class given is in vivo, human.
Series [2] can be described thus: Pharmacokinetics in subjects with moderate renal impairment vs matched controls. From the text: (§1) Data are GMRs and 90% CIs. Reference used are the matched healthy subjects for renal and hepatic impairment studies, and extensive or ultra-extensive CYP2D6 metabolizers.
Series [3] can be described thus: Pharmacokinetics in CYP2D6 poor metabolizers vs extensive metabolizers.
From the text: Approximately 7 to 10% of Caucasians and 3 to 8% of African Americans lack the capacity to metabolize CYP2D6 substrates and are classified as poor metabolizers.
as §1

The nature of series [4]: Co-administration of paroxetine (strong CYP2D6 inhibitor) and the subject combination. From the text: Co-administration of the SSRI paroxetine and the subject combination was studied in 29 healthy volunteers.
Another series has as its system plasma protein. Put plainly: Plasma protein binding.
A short description of series [5]: Pharmacokinetics after administration of the subject combination (steady state). Particulars: human, in vivo; for half-life: mean elimination half-life.
The mark [6] stands for this setting: 7 subjects with moderate renal impairment (GFR 30-60 mL/min) vs 6 matched controls with normal renal function.
[7] abbreviates: patients having moderate renal impairment.
[8] abbreviates: 3 poor metabolizers compared to extensive metabolizers.
Setting [9] is: 20 mg paroxetine concomitantly with tablet twice daily vs tablet twice daily without paroxetine.

“Also recorded” adds a separate entry of the source.

Consider `COc1ccc2c(c1)[C@]13CCCC[C@@H]1[C@H](C2)N(C)CC3` [dextromethorphan], for which, in series [1], the “AUC0-2 decrease with food” value amounted to 14% and the “Cmax change with food” value is “unchanged”. Further, in series [2] (setting [6]), the increase of exposure entry was “approximately 2 fold” and the reduction of clearance stood at 50%. Also, in series [2] (setting [7]), the “concentrations compared with patients with healthy renal function” value is listed as “higher” and the “increase in AUC0-2” value came to 2.21 fold. Further, in series [3] (setting [8]), the “increase in AUC0-12” value is around 3.4 fold and the “increase in Cmax” value is around 3 fold. Besides, in series [3] (steady state, subject combination), the “plasma concentrations in CYP2D6 poor metabolizers compared with non-poor metabolizers” value was “increases; also recorded: generally higher”. In series [4] (setting [9]), the “increase in AUC0-2” value was found to be 2.69 fold and the “increase in Cmax” value is 2.38 fold. Moreover, in series [4] (29 healthy volunteers, paroxetine co-administered with the subject combination), the “change of overall exposure by paroxetine” value was 2.5 fold. For the same compound, the “plasma concentrations with concomitant strong CYP2D6 inhibitor” value in series [4] (concomitant use of the subject combination with a strong CYP2D6 inhibitor) was “increases”. This compound also displayed a fraction unbound in the series with plasma protein of 0.3 to 0.4. Also, the Tmax in series [5] is around 3 h. Further, in series [5] (following 8 days of administration of the subject combination in extensive metabolizers), the half-life is around 22 h. Besides, in series [5] (subject combination), the half-life is 22 h.
With `CC(NC(C)(C)C)C(=O)c1cccc(Cl)c1` (racemic) [bupropion], in series [2] (human, in vivo), the “concentrations compared with patients with healthy renal function” value is reported as “higher”, the “increase in AUC0-2” value is 1.80 fold, the increase of exposure result is “approximately 2 fold” and the reduction of clearance turned out to be 50%.
